Assay results reported in patent US4005132A, “Process for reacting trialkyl boranes with compounds containing protons” (Studiengesellschaft Kohle m.b.H., priority 1971, dated 1977).

How the values were obtained:
[1] = Solubility of diethylborylated sugars and polysaccharides; type: physicochemical
[2] = Thermal stability (vacuum distillation / decomposition on heating); type: physicochemical

Row | Structure (SMILES) | solubility in hydrocarbons [1] | stability on distillation under high vacuum ([2]; high vacuum, 136° C.) | stability on vacuum distillation [2] | solubility in aliphatic and aromatic hydrocarbons and in carbon tetrachloride ([1]; aliphatic and aromatic hydrocarbons and carbon tetrachloride) | Decomposition of the compound begins at ([2]; with evolution of triethyl borane)
1 | CCB(CC)OC[C@H]1OC(OB(CC)CC)[C@H](OB(CC)CC)[C@@H](OB(CC)CC)[C@@H]1OB(CC)CC (single isomer, unassigned) [1,2,3,4,5-Pentakis-diethyl-boryl-D(+)-glucose] | very readily soluble | without decomposition | without decomposition | – | –
2 | CCB(CC)OC[C@H]1O[C@H](OC)[C@H](OB(CC)CC)[C@@H](OB(CC)CC)[C@@H]1OB(CC)CC [2,3,4,6-tetrakis(diethylboryl)-α-methyl-D-(+)-glucoside] | very readily soluble | – | without decomposition | – | –
3 | CCB(CC)OC[C@H](OB(CC)CC)[C@H]1OC(=O)C(OB(CC)CC)=C1OB(CC)CC [2.3.5.6-Tetrakis-diethylboryl-L(+)-ascorbic acid] | very readily soluble | – | without decomposition | – | –
4 | CCB(CC)OC[C@H]1O[C@@H]2O[C@H]3[C@H](OB(CC)CC)[C@@H](OB(CC)CC)[C@@H](O[C@H]4[C@H](OB(CC)CC)[C@@H](OB(CC)CC)[C@@H](O[C@H]5[C@H](OB(CC)CC)[C@@H](OB(CC)CC)[C@@H](O[C@H]6[C@H](OB(CC)CC)[C@@H](OB(CC)CC)[C@@H](O[C@H]7[C@H](OB(CC)CC)[C@@H](OB(CC)CC)[C@@H](O[C@H]8[C@H](OB(CC)CC)[C@@H](OB(CC)CC)[C@@H](O[C@H]1[C@H](OB(CC)CC)[C@H]2OB(CC)CC)O[C@@H]8COB(CC)CC)O[C@@H]7COB(CC)CC)O[C@@H]6COB(CC)CC)O[C@@H]5COB(CC)CC)O[C@@H]4COB(CC)CC)O[C@@H]3COB(CC)CC [(I), Per-O-diethylboryl-cyclohepta-amylose] | – | – | – | soluble | 141 °C
